From the supplement of paper PMC10307832

How the values were obtained:
Assay in all cases: relative viability (nuclei count vs DMSO), 5 days (fraction); higher = more cells survive
Sorafenib + Alpelisib = compound: CNC(=O)c1cc(Oc2ccc(NC(=O)Nc3ccc(Cl)c(C(F)(F)F)c3)cc2)ccn1 [Sorafenib] + Cc1nc(NC(=O)N2CCC[C@H]2C(N)=O)sc1-c1ccnc(C(C)(C)C(F)(F)F)c1 [Alpelisib] (partner 2 µM)
Procedure, shortened: (§1)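 Cells from lung cancer lines were seeded into 1536-well plates and, one day later, dosed by pin tool. Treatments were either a single drug or a fixed dose of an anchor drug with five library-drug doses (not always all listed) in √10 steps. After 5 days, nuclei were stained in a one-step fixation (final 0.05% Triton X-100, 1% formaldehyde, 1 ug/ml Hoechst) and counted on 4× images, and relative viability is the treated-to-vehicle nuclei ratio, as the median of duplicate plates.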

Sorafenib + Palbociclib = compound: CNC(=O)c1cc(Oc2ccc(NC(=O)Nc3ccc(Cl)c(C(F)(F)F)c3)cc2)ccn1 [Sorafenib] + CC(=O)c1c(C)c2cnc(Nc3ccc(N4CCNCC4)cn3)nc2n(C2CCCC2)c1=O [Palbociclib] (partner 0.5 µM)
Procedure, shortened: as §1

Sorafenib + Bortezomib = compound: CNC(=O)c1cc(Oc2ccc(NC(=O)Nc3ccc(Cl)c(C(F)(F)F)c3)cc2)ccn1 [Sorafenib] + CC(C)C[C@H](NC(=O)[C@H](Cc1ccccc1)NC(=O)c1cnccn1)B(O)O [Bortezomib] (partner 0.002 µM)
Procedure, shortened: as §1

Sorafenib + Pemetrexed = compound: CNC(=O)c1cc(Oc2ccc(NC(=O)Nc3ccc(Cl)c(C(F)(F)F)c3)cc2)ccn1 [Sorafenib] + Nc1nc2[nH]cc(CCc3ccc(C(=O)N[C@@H](CCC(=O)O)C(=O)O)cc3)c2c(=O)[nH]1 [Pemetrexed] (partner 0.2 µM)
Procedure, shortened: as §1

Sorafenib + Phenformin = compound: CNC(=O)c1cc(Oc2ccc(NC(=O)Nc3ccc(Cl)c(C(F)(F)F)c3)cc2)ccn1 [Sorafenib] + N=C(N)NC(=N)NCCc1ccccc1 [Phenformin] (partner 250 µM)
Procedure, shortened: as §1

Row | Cell Line | relative viability (Sorafenib + Alpelisib; first compound 0.08 µM) | relative viability (Sorafenib + Alpelisib; first compound 0.253 µM) | relative viability (Sorafenib + Alpelisib; first compound 2.53 µM) | relative viability (Sorafenib + Alpelisib; first compound 8 µM) | relative viability (Sorafenib + Palbociclib; first compound 0.08 µM) | relative viability (Sorafenib + Palbociclib; first compound 2.53 µM) | relative viability (Sorafenib + Bortezomib; first compound 0.08 µM) | relative viability (Sorafenib + Bortezomib; first compound 0.253 µM) | relative viability (Sorafenib + Bortezomib; first compound 2.53 µM) | relative viability (Sorafenib + Bortezomib; first compound 8 µM) | relative viability (Sorafenib + Pemetrexed; first compound 0.253 µM) | relative viability (Sorafenib + Pemetrexed; first compound 2.53 µM) | relative viability (Sorafenib + Pemetrexed; first compound 8 µM) | relative viability (Sorafenib + Phenformin; first compound 0.08 µM) | relative viability (Sorafenib + Phenformin; first compound 2.53 µM) | relative viability (Sorafenib + Phenformin; first compound 8 µM) | relative viability (Sorafenib + Palbociclib; first compound 0.253 µM) | relative viability (Sorafenib + Palbociclib; first compound 8 µM) | relative viability (Sorafenib + Pemetrexed; first compound 0.08 µM) | relative viability (Sorafenib + Phenformin; first compound 0.253 µM)
1 | NCI-H1755 | 0.977 | 0.93 | 0.857 | 0.694 | 0.482 | 0.461 | 0.921 | 0.945 | 0.988 | 0.689 | 0.385 | 0.419 | 0.355 | 0.569 | 0.624 | 0.534 | – | – | – | –
2 | NCI-H1792 | 0.704 | 0.622 | 0.657 | 0.664 | 0.722 | 0.646 | 1.02 | 0.957 | 0.958 | 0.92 | 0.527 | 0.578 | 0.567 | 0.199 | 0.234 | 0.181 | 0.684 | 0.654 | 0.97 | 0.309
3 | NCI-H1915 | 0.998 | 0.922 | 0.909 | 1.07 | 0.54 | 0.581 | 1.01 | 0.766 | 0.923 | 0.99 | 0.45 | 0.433 | 0.504 | 0.357 | 0.359 | 0.341 | 0.574 | 0.413 | 0.423 | 0.33
4 | NCI-H1975 | 0.643 | 0.789 | 0.77 | 0.323 | 0.712 | 0.656 | 0.404 | 0.375 | 0.445 | 0.201 | 0.285 | 0.294 | 0.209 | 0.462 | 0.429 | 0.341 | 0.49 | 0.311 | 0.3 | 0.403
5 | NCI-H1993 | 0.684 | 0.7 | 0.666 | 0.674 | 0.662 | 0.751 | 1.6 | 0.994 | 1.24 | 1.07 | 0.597 | 0.528 | 0.43 | 0.516 | 0.499 | 0.499 | 0.656 | 0.565 | 0.566 | 0.51
6 | NCI-H2009 | 1.22 | – | 1.03 | 0.842 | 0.275 | 0.21 | 0.898 | 0.689 | 0.912 | 0.522 | 0.909 | 0.83 | 0.959 | 0.47 | 0.433 | 0.157 | 0.115 | 0.198 | 1.02 | 0.365
7 | NCI-H2023 | 0.659 | 0.603 | 0.613 | 0.438 | 0.49 | 0.435 | 1.2 | 1.02 | 0.945 | 0.319 | 0.252 | 0.226 | 0.121 | 0.51 | 0.374 | 0.174 | 0.444 | 0.106 | 0.267 | 0.395
8 | NCI-H2085 | 0.998 | 0.878 | 0.882 | 0.777 | 0.442 | 0.51 | 1.09 | 0.824 | 1.01 | 0.91 | 0.98 | 1.15 | 0.762 | – | 0.756 | 0.48 | 0.491 | 0.497 | 1.02 | 0.623
9 | NCI-H2087 | 0.88 | 0.81 | 0.924 | 0.341 | 0.245 | 0.15 | 0.76 | 0.708 | 0.849 | 0.454 | 0.622 | 0.61 | 0.239 | 0.467 | 0.389 | 0.14 | 0.209 | 0.159 | 0.694 | 0.403
10 | NCI-H2126 | 0.788 | 0.743 | 0.855 | – | 0.354 | 0.411 | 1.14 | 1.17 | 1.09 | 1.16 | 0.672 | 0.681 | 0.706 | 0.539 | 0.603 | 0.501 | 0.375 | 0.399 | 0.763 | 0.529
11 | NCI-H2228 | 0.863 | 0.753 | 0.694 | 0.64 | 0.692 | 0.589 | 1.24 | 0.893 | 1.02 | 0.615 | 0.323 | 0.244 | 0.31 | 0.362 | 0.259 | 0.133 | 0.883 | 0.517 | 0.361 | 0.285
12 | NCI-H2347 | 1.2 | 0.89 | – | 1 | 0.432 | 0.434 | 1.13 | 0.997 | 1.02 | 0.868 | 0.398 | 0.425 | 0.413 | 0.519 | 0.351 | 0.326 | 0.464 | 0.43 | 0.442 | 0.398
13 | NCI-H2405 | 1 | 0.857 | 0.627 | 0.423 | 0.553 | 0.561 | 1.03 | 0.905 | 1 | 0.926 | 0.902 | 1.13 | 0.982 | 0.421 | 0.405 | 0.259 | 0.517 | 0.477 | 1.12 | 0.334
14 | NCI-H3122 | 0.799 | 0.971 | 0.79 | 0.409 | 0.204 | 0.177 | 0.993 | 0.984 | 1.06 | 0.952 | 0.194 | 0.222 | 0.167 | 0.39 | 0.346 | 0.212 | 0.2 | 0.18 | 0.209 | 0.326
15 | PC-3 [JPC-3] | 1.07 | 0.987 | 1.08 | 1.12 | 0.522 | 0.576 | 0.875 | 0.726 | 0.818 | 0.928 | 0.856 | 1.34 | 1.2 | 0.512 | 0.492 | 0.453 | 0.552 | 0.606 | 1.11 | 0.458
16 | PC-14 | 1 | 0.848 | 0.854 | 0.753 | 0.62 | 0.518 | 0.911 | 0.89 | 0.827 | 0.316 | 0.137 | 0.123 | 0.102 | 0.632 | 0.696 | 0.591 | 0.512 | 0.158 | 0.133 | 0.429
